Reference: patent US20250186437A1, “CARBOLINE COMPOUNDS AND USE THEREOF” (PTC Therapeutics, Inc., priority 2021, published 2025)

How the values were obtained:
MOLM-13 cells [1] = assay: MOLM-13 Cell Proliferation Assay (indicator of DHODH inhibition); format: cell-based; conditions: Homo sapiens, 72 Hours of culture, CellTiter-Glo, no uridine
Method in brief: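 Low-passage MOLM-13 cells (10^4/well) in RPMI 1640 + 10% FBS exposed to compound (0.5% DMSO final) for 72 h at 37 °C, 5% CO2. Viability read by CellTiter-Glo luminescence; growth reflects de novo pyrimidine synthesis dependent on DHODH.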

MOLM-13 cells [2] = assay: MOLM-13 Uridine Rescue Assay; format: cell-based; conditions: Homo sapiens; MOLM-13 cell proliferation with 100 μM Uridine added, 72 Hours of culture
Description: The following assay was conducted to measure proliferation of MOLM-13 cells in the presence of each compound studied. This assay was included as an indicator of DHODH inhibition, as growth of MOLM-13 cells is known to depend on synthesis of pyrimidines using the de novo pathway, which can be blocked by inhibition of DHODH. • 1. MOLM-13 cells were cultured in RPMI 1640 medium+10% Fetal Bovine Serum (FBS). Only low passage cells (<20) were used for the compound tests • 2. On day 1, Log-phase growing Molm-13 Cells were counted and diluted to 10^5 cells/mL in RPMI 1640 medium+10% FBS • 3. 100 μL of diluted MOLM-13 cells in 96 well white plates were seeded, for a final density of 10^4 cells/well. • 4. 0.5 μL of pre-diluted 200× compounds or DMSO control was added to each well. The final DMSO concentration was 0.5%. • 5. After 72 Hours of culture at 37° C., 5% CO2, the plates were taken out and cooled to RT, then 50 μL CellTiter-Glo® (Promega) was added, and the composition was mixed at RT for 10 minutes. • 6. The plates were then read by ViewLux (Speed-fast, Gain-High, Bining-1X, 5 seconds).
Several compounds were also tested in a Uridine rescue assay. In the Uridine rescue assay, using the procedure in Example 1 above, an additional plate of MOLM-13 cell cultures was prepared, to which 100 μM of Uridine was added in step 3 of the process.

Structure (SMILES) | IC50 (MOLM-13 cells [1]) [nM] | IC50 (MOLM-13 cells [2]) [nM]
Cc1ccc(C2c3[nH]c4cc(N)c(Cl)cc4c3CCN2c2nccc(C(F)(F)F)n2)c(F)c1F (stereo not shown) [Compound 282, 6-chloro-1-(2,3-difluoro-4-methylphenyl)-2-[4-(trifluoromethyl)pyrimidin-2-yl]-2,3,4,9-tetrahydro-1H-pyrido[3,4-b]indol-7-amine] | 23.2 | 11500
Fc1cc2[nH]c3c(c2cc1Cl)CCN(c1nccc(C(F)(F)F)n1)C3c1cccc(F)c1F (stereo not shown) [Compound 108, 6-chloro-1-(2,3-difluorophenyl)-7-fluoro-2-[4-(trifluoromethyl)pyrimidin-2-yl]-2,3,4,9-tetrahydro-1H-pyrido[3,4-b]indole] | 1.9 | 8270
Cc1ccc(C2c3[nH]c4ccc(Cl)cc4c3CCN2c2nccc(C(F)(F)F)n2)cc1 (stereo not shown) [Compound 343, 6-chloro-1-(4-methylphenyl)-2-[4-(trifluoromethyl)pyrimidin-2-yl]-2,3,4,9-tetrahydro-1H-pyrido[3,4-b]indole] | 3.3 | 19800
N#Cc1cc(C#N)nc(N2CCc3c([nH]c4ccc(Cl)cc34)[C@@H]2c2cnc(N3CCOCC3)nc2)n1 [Compound 398, 2-{(1S)-6-chloro-1-[2-(morpholin-4-yl)pyrimidin-5-yl]-1,3,4,9-tetrahydro-2H-pyrido[3,4-b]indol-2-yl}pyrimidine-4,6-dicarbonitrile] | 10.6 | 720
CN1CCN(c2ncc(C3c4[nH]c5ccc(Cl)cc5c4CCN3c3nccc(C(F)(F)F)n3)cn2)CC1 (stereo not shown) [Compound 369, 6-chloro-1-[2-(4-methylpiperazin-1-yl)pyrimidin-5-yl]-2-[4-(trifluoromethyl)pyrimidin-2-yl]-2,3,4,9-tetrahydro-1H-pyrido[3,4-b]indole] | 4.5 | 5020
Cc1nc(C)nc(N2CCc3c([nH]c4ccc(Cl)cc34)C2c2ccc(N3CCOCC3)c(F)c2F)n1 (stereo not shown) [Compound 284, 6-chloro-1-[2,3-difluoro-4-(morpholin-4-yl)phenyl]-2-(4,6-dimethyl-1,3,5-triazin-2-yl)-2,3,4,9-tetrahydro-1H-pyrido[3,4-b]indole] | 12.9 | 12200
Cc1nc(C)nc(N2CCc3c([nH]c4ccc(Cl)cc34)C2c2cnc(N3CCOCC3)nc2)n1 (stereo not shown) [Compound 293, 6-chloro-2-(4,6-dimethyl-1,3,5-triazin-2-yl)-1-[2-(morpholin-4-yl)pyrimidin-5-yl]-2,3,4,9-tetrahydro-1H-pyrido[3,4-b]indole] | 12.8 | 10600
Nc1c(Cl)ccc2[nH]c3c(c12)CCN(c1nccc(C(F)(F)F)n1)C3c1cnc(N2CCOCC2)nc1 (stereo not shown) [Compound 328, 6-chloro-1-[2-(morpholin-4-yl)pyrimidin-5-yl]-2-[4-(trifluoromethyl)pyrimidin-2-yl]-2,3,4,9-tetrahydro-1H-pyrido[3,4-b]indol-5-amine] | 2.9 | 10500
Cc1ccc(C2c3[nH]c4ccc(N(C)C)cc4c3CCN2c2nccc(C(F)(F)F)n2)c(F)c1F (stereo not shown) [Compound 330, 1-(2,3-difluoro-4-methylphenyl)-N,N-dimethyl-2-[4-(trifluoromethyl)pyrimidin-2-yl]-2,3,4,9-tetrahydro-1H-pyrido[3,4-b]indol-6-amine] | 11.3 | 11500
Cc1ccc(C2c3[nH]c4ccc(Cl)c(N)c4c3CCN2c2nccc(C(F)(F)F)n2)c(F)c1F (stereo not shown) [Compound 273, 6-chloro-1-(2,3-difluoro-4-methylphenyl)-2-[4-(trifluoromethyl)pyrimidin-2-yl]-2,3,4,9-tetrahydro-1H-pyrido[3,4-b]indol-5-amine] | 7.5 | 29700
Cc1ccc(C2c3[nH]c4cc(F)c(Cl)cc4c3CCN2c2nccc(C(F)(F)F)n2)cc1 (stereo not shown) [Compound 72, 6-chloro-7-fluoro-1-(4-methylphenyl)-2-[4-(trifluoromethyl)pyrimidin-2-yl]-2,3,4,9-tetrahydro-1H-pyrido[3,4-b]indole] | 3.5 | 18800

The remaining lines, values ahead:

IC50 (MOLM-13 cells [1]) [nM] | IC50 (MOLM-13 cells [2]) [nM] | Structure (SMILES)
1.1 | 14400 | Nc1cc(Cl)cc2c3c([nH]c12)C(c1cnc(N2CCOCC2)nc1)N(c1nccc(C(F)(F)F)n1)CC3 (stereo not shown) [Compound 310, 6-chloro-1-[2-(morpholin-4-yl)pyrimidin-5-yl]-2-[4-(trifluoromethyl)pyrimidin-2-yl]-2,3,4,9-tetrahydro-1H-pyrido[3,4-b]indol-8-amine]
1 | 11600 | Cc1ccc(C2c3[nH]c4ccc([N+](=O)[O-])cc4c3CCN2c2nccc(C(F)(F)F)n2)c(F)c1F (stereo not shown) [Compound 305, 1-(2,3-difluoro-4-methylphenyl)-6-nitro-2-[4-(trifluoromethyl)pyrimidin-2-yl]-2,3,4,9-tetrahydro-1H-pyrido[3,4-b]indole]
0.2 | 12600 | FC(F)(F)c1cc(C(F)(F)F)nc(N2CCc3c([nH]c4ccc(Cl)cc34)[C@@H]2c2ccc(N3CCOCC3)nc2)n1 [Compound 409, (1S)-2-[4,6-bis(trifluoromethyl)pyrimidin-2-yl]-6-chloro-1-[6-(morpholin-4-yl)pyridin-3-yl]-2,3,4,9-tetrahydro-1H-pyrido[3,4-b]indole]
0.2 | 7660 | Cc1ccc([C@H]2c3[nH]c4ccc(Cl)cc4c3CCN2c2nc(C(F)(F)F)nc(C(F)(F)F)n2)c(F)c1F [Compound 387, (1S)-2-[4,6-bis(trifluoromethyl)-1,3,5-triazin-2-yl]-6-chloro-1-(2,3-difluoro-4-methylphenyl)-2,3,4,9-tetrahydro-1H-pyrido[3,4-b]indole]
1.7 | 4810 | N#Cc1ccc(C2c3[nH]c4ccc(Cl)cc4c3CCN2c2nccc(C(F)(F)F)n2)c(F)c1F (stereo not shown) [Compound 278, 4-{6-chloro-2-[4-(trifluoromethyl)pyrimidin-2-yl]-2,3,4,9-tetrahydro-1H-pyrido[3,4-b]indol-1-yl}-2,3-difluorobenzonitrile]
1.9 | 6560 | Cc1nc(C)nc(N2CCc3c([nH]c4ccc(Cl)cc34)C2c2ccc(C)c(F)c2F)n1 (stereo not shown) [Compound 253, 6-chloro-1-(2,3-difluoro-4-methylphenyl)-2-(4,6-dimethyl-1,3,5-triazin-2-yl)-2,3,4,9-tetrahydro-1H-pyrido[3,4-b]indole]
1 | 7600 | Cc1cc(C(F)(F)F)nc(N2CCc3c([nH]c4ccc(Cl)cc34)C2c2ccc(C)c(F)c2F)n1 (stereo not shown) [Compound 213, 6-chloro-1-(2,3-difluoro-4-methylphenyl)-2-[4-methyl-6-(trifluoromethyl)pyrimidin-2-yl]-2,3,4,9-tetrahydro-1H-pyrido[3,4-b]indole]
0.3 | 6640 | FC(F)(F)c1nc(N2CCc3c([nH]c4ccc(Cl)cc34)C2c2cnc(N3CCOCC3)nc2)nc(C(F)(F)F)n1 (stereo not shown) [Compound 388, 2-[4,6-bis(trifluoromethyl)-1,3,5-triazin-2-yl]-6-chloro-1-[2-(morpholin-4-yl)pyrimidin-5-yl]-2,3,4,9-tetrahydro-1H-pyrido[3,4-b]indole]
1.6 | 16400 | Cc1cc(C(F)(F)F)nc(N2CCc3c([nH]c4ccc(Cl)cc34)C2c2ccc(N3CCOCC3)nc2)n1 (stereo not shown) [Compound 372, 6-chloro-2-[4-methyl-6-(trifluoromethyl)pyrimidin-2-yl]-1-[6-(morpholin-4-yl)pyridin-3-yl]-2,3,4,9-tetrahydro-1H-pyrido[3,4-b]indole]
